Experimental data as given in patent US20250041284A1, “TREATMENT OF NEUROLOGICAL DISORDERS” (Praxis Precision Medicines, Inc., priority 2022, published 2025).

System: scPTZ-induced seizures in wildtype CD-1 mice
Assay: Subcutaneous pentylenetetrazole (scPTZ) induced seizure
Type: in vivo, mouse
Settings: 1-10 mg/kg orally
Experimental: Male CD-1 mice (Charles River Laboratories, St. Constant, Quebec, Canada) were used for the study. Body weights at the time the experiment was carried out were between 27 and 39 grams. The mice were group-housed in polycarbonate cages according to standard operating procedures. Animals were maintained on a 12 hour light/12 hour dark cycle, with all experimental activities occurring during the light phase. Food and water were available ad libitum. Mice acclimated to the test facility for at least 72 hours prior to testing.
Treatment was conducted using Compound 1 and 35% 2-hydroxypropyl-β-cyclodextrin (35% HPBCD, used as a negative control). Compound 1 stock solution was prepared fresh each experiment day in 35% HPBCD. […]
Immediately prior to the administration of PTZ, a brief neurological assessment was performed. Each animal was visually assessed and received a score from 0 to 3 according to the following scoring system: neurological score of 0 corresponds to a normal status; neurological score of 1 corresponds to a modest decrease in spontaneous activity; neurological score of 2 corresponds to a marked decrease in spontaneous activity; and neurological score of 3 corresponds to loss of righting reflex.
PTZ (85 mg/kg, 10 ml/kg) was administered as a subcutaneous (s.c.) injection. […] The latency to generalized clonic seizure was recorded. Seizures were also scored using a seizure scale. […]

SMILES: CCOC(F)(F)c1nnc2ccc(-c3cnc(OCC(F)(F)F)c(F)c3)cn12 [Compound 1]
- neurological scores before PTZ: Neurological scores for all but one mouse treated with Compound 1 were normal
- protection from PTZ-induced generalized clonus (PTZ 85 mg/kg s.c.): mice were protected from generalized clonus
